What is called IC50 is the point on the concentration scale where inhibition reaches its midpoint. A low value points to higher potency. Usually inhibition stands for how much of the control response was suppressed.

The target in test [1] is T1, Steroidogenic factor 1 (Homo sapiens, UniProt Q13285). Description: Inhibition of GAL4-tagged NR5A1 by luciferase assay.
Test [2] has as its target T2, Nuclear receptor ROR-alpha (Homo sapiens, UniProt P35398).
T2 sequence (P35398 whole entry): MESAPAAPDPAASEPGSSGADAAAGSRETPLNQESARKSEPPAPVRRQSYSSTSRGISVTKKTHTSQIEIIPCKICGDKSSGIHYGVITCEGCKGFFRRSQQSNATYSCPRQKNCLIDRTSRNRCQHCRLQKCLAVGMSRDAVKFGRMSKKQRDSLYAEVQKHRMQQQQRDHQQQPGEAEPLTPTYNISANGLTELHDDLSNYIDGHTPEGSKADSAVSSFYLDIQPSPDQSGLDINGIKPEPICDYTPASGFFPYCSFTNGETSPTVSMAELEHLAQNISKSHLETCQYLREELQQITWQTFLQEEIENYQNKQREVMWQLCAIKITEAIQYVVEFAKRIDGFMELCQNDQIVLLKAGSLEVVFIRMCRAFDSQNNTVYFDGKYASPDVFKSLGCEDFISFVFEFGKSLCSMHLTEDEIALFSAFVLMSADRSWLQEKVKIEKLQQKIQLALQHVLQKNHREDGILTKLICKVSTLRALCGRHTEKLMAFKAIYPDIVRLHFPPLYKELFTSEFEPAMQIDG
Description: Inhibition of GAL4-tagged RORalpha by luciferase assay.

Test [3] can be described thus: Inhibition of HSV1 GAL4-tagged VP16 by luciferase assay.
A short description of test [4]: Inhibition of HSV1 GAL4-tagged VP16 at 100 uM by luciferase assay.
In test [5] the target is T1, Steroidogenic factor 1. In words: Inhibition of GAL4-tagged NR5A1 at 100 uM by luciferase assay.
In test [6] the target is T3, Nuclear receptor ROR-alpha (Homo sapiens) (UniProt P35398).
T3 sequence (whole entry): T2 sequence (P35398 whole entry)
In words: Inhibition of GAL4-tagged RORalpha at 100 uM by luciferase assay.

T1 sequence (Q13285 whole entry, the tested form may be a part): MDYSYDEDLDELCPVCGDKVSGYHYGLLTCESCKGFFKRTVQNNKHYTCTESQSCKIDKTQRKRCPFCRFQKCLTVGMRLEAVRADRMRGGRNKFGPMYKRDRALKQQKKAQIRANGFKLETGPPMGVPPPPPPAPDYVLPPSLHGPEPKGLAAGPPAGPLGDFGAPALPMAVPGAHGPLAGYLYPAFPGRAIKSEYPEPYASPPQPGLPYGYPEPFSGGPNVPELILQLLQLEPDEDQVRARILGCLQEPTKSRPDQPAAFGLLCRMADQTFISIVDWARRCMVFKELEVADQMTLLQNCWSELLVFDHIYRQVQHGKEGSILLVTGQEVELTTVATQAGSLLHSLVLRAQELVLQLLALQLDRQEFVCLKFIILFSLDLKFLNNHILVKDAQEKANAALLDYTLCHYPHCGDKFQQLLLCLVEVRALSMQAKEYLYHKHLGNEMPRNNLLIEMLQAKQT

In the case of `CCCCOc1cccc2c(=O)n(CC(=O)Nc3ccc4c(c3)OCCO4)ccc12`, the results for the 50% inhibitory concentration (IC50) (against Steroidogenic factor 1 [1]; in test [2]; in test [3]) were 13.7 µM, 21.5 µM and 24.1 µM, respectively.

For `CCOC(=O)C(C)Oc1cccc2c(=O)n(CC(=O)NCc3ccc4c(c3)OCO4)ccc12` (stereo unspecified), the results for the concentration for half-maximal inhibition (IC50) (at Steroidogenic factor 1 [1]; in test [2]; in test [3]) were 0.26 µM, > 33 µM and > 33 µM, respectively.

Consider `CCOC(=O)C(C)Oc1cccc2c(=O)n(CC(=O)NCc3ccco3)ccc12` (stereo unspecified), for which the values for the half-inhibitory concentration (IC50) (at Steroidogenic factor 1 [1]; in test [2]) were 4.71 µM and > 33 µM, respectively. Moreover, the inhibition in test [4] is < 50%.

For `CCOC(=O)C(C)Oc1cccc2c(=O)n(C(Cc3ccccc3)C(=O)Nc3ccc4c(c3)OCCO4)ccc12` (stereo unspecified), the inhibition (in test [4]; on Steroidogenic factor 1 [5]; in test [6]) was < 50% each time.

Regarding `CCOC(=O)C(C)Oc1cccc2c(=O)n(CC(=O)NCCc3ccccc3)ccc12` (stereo unspecified), the IC50 is 0.36 µM on Steroidogenic factor 1 [1] and > 33 µM in test [2]. The inhibition in test [4] was < 50%.

On to `CCOC(=O)C(C)Oc1ccc2c(=O)n(CC(=O)Nc3ccc4c(c3)OCCO4)ccc2c1` (stereo unspecified), for which the inhibition (in test [4]; on Steroidogenic factor 1 [5]; in test [6]) was < 50% in each case.

`CCOC(=O)C(C)Oc1cccc2c(=O)n(CC(=O)Nc3ccc(OCC)cc3)ccc12` (stereo unspecified): the half-maximal inhibitory concentration (IC50) came to 0.19 µM on Steroidogenic factor 1 [1], 22.6 µM in test [2] and 24.2 µM in test [3].

Take `CCOC(=O)C(C)Oc1cccc2c(=O)n(CC(=O)Nc3ccc(OC)cc3)ccc12` (stereo unspecified): the IC50 against Steroidogenic factor 1 [1] worked out at 0.2 µM. In addition, the inhibition in test [4] and in test [6] was < 50% each time.

Regarding `CCOC(=O)C(C)Oc1cccc2c(=O)n(CC(=O)Nc3ccc4c(c3)OCCO4)ccc12` (stereo unspecified), the half-inhibitory concentration (IC50) at Steroidogenic factor 1 [1] is 0.76 µM; in test [2], > 33 µM; in test [3], > 33 µM.

`CCOC(=O)C(C)Oc1cccc2c(=O)n(CC(=O)NC3CCCCC3)ccc12` (stereo unspecified) displayed a concentration for half-maximal inhibition (IC50) at Steroidogenic factor 1 [1] of 1.77 µM. Also, the inhibition in test [4] and in test [6] was < 50% in each case.

With `CCOC(=O)C(C)(C)Oc1cccc2c(=O)n(CC(=O)Nc3ccc4c(c3)OCCO4)ccc12`, the IC50 on Steroidogenic factor 1 [1] was 0.59 µM; in test [3], > 33 µM. For the same compound, the inhibition in test [6] was < 50%.

The compound `CCOC(=O)C(C)Oc1cccc2c(=O)n(CC(=O)Nc3ccc([N+](=O)[O-])cc3)ccc12` (stereo unspecified) registered a half-inhibitory concentration (IC50) on Steroidogenic factor 1 [1] of 0.53 µM. The inhibition in test [4] and in test [6] was < 50% throughout.

`CCOC(=O)C(C)Oc1cccc2c(=O)n(CCC(=O)Nc3ccc4c(c3)OCCO4)ccc12` (stereo unspecified) registered an IC50 against Steroidogenic factor 1 [1] of 8.46 µM. Moreover, the inhibition in test [4] and in test [6] was < 50% each time.

For the compound `CCOC(=O)C(C)Oc1cccc2c(=O)n(CC(=O)NCc3ccc(F)cc3)ccc12` (stereo unspecified), the results for the concentration for half-maximal inhibition (IC50) (against Steroidogenic factor 1 [1]; in test [2]) were 0.68 µM and 1.68 µM, respectively. For the same compound, in test [4], the inhibition was < 50%.

For the compound `CCOC(=O)C(C)Oc1cccc2c(=O)n(CC(=O)N(C)c3ccc4c(c3)OCCO4)ccc12` (stereo unspecified), the 50% inhibitory concentration (IC50) against Steroidogenic factor 1 [1] was found to be 3.57 µM. For the same compound, the inhibition in test [4] and in test [6] was < 50% throughout.

Take `CCCCc1ccc(NC(=O)Cn2ccc3c(OC(C)C(=O)OCC)cccc3c2=O)cc1` (stereo unspecified): the concentration for half-maximal inhibition (IC50) was determined as 0.36 µM against Steroidogenic factor 1 [1] and 30.7 µM in test [2]. Moreover, the inhibition in test [4] is < 50%.

On to `CCOC(=O)C(C)Oc1cccc2c(=O)n(CC(=O)Nc3ccc(OC(F)(F)F)cc3)ccc12` (stereo unspecified), for which, on Steroidogenic factor 1 [1], half-maximal inhibition (IC50) required 0.2 µM. The inhibition in test [4] and in test [6] was < 50% in each case.

For the compound `CCOC(=O)C(C)Oc1cccc2c(=O)n(CC(=O)Nc3ccc(C)cc3)ccc12` (stereo unspecified), the IC50 is 0.34 µM on Steroidogenic factor 1 [1], 36.5 µM in test [2] and > 33 µM in test [3].

At Steroidogenic factor 1 [1], `CCCCNC(=O)Cn1ccc2c(OC(C)C(=O)OCC)cccc2c1=O` (stereo unspecified) gave an IC50 of 9.71 µM. In addition, the inhibition in test [4] and in test [6] was < 50% in each case.

With `CCOC(=O)C(C)Oc1cccc2c(=O)n(CC(=O)NCc3ccccc3)ccc12` (stereo unspecified), the IC50 amounted to 1.06 µM against Steroidogenic factor 1 [1] and 3.22 µM in test [2]. The inhibition in test [4] is < 50%.

Regarding `CCOC(=O)C(C)Oc1cccc2c(=O)n(CC(=O)Nc3ccc(CC)cc3)ccc12` (stereo unspecified), the half-inhibitory concentration (IC50) against Steroidogenic factor 1 [1] is 0.11 µM; in test [2] it was 25 µM; in test [3], > 33 µM.

With `CCOC(=O)C(C)Oc1cccc2c(=O)n(C(C)C(=O)Nc3ccc4c(c3)OCCO4)ccc12` (stereo unspecified), the inhibition (in test [4]; against Steroidogenic factor 1 [5]; in test [6]) was < 50% in each case.

These data come from ChEMBL document CHEMBL1144830, “Synthesis of small molecule inhibitors of the orphan nuclear receptor steroidogenic factor-1 (NR5A1) based on isoquinolinone scaffolds” (Bioorg Med Chem Lett, 2008).
